Data from US11859169B2, “Nano-ligand for promoting cell adhesion and regeneration of macrophages and method of promoting cell adhesion and regeneration of macrophages by using the same” (Korea University Research and Business Foundation, priority 2020, dated 2024).

Test system: Macrophages (RAW 264.7)
Test: adhesion structure assembly-mediated M2 phenotype under ROCK, myosin II or actin polymerization inhibition
Format: cell-based
Conditions: M2-polarizing medium; for reduction of Arg-1 immunofluorescence on the magnet side / reduction of adherent macrophage area on the magnet side / reduction of adherent macrophage aspect ratio on the magnet side: 36 hours, 50 μM Y27632, 10 μM blebbistatin

Row | SMILES | reduction of Arg-1 immunofluorescence on the magnet side [%] | reduction of adherent macrophage area on the magnet side [%] | reduction of adherent macrophage aspect ratio on the magnet side [%] | decreases in the area, aspect ratio, and Arg-1 fluorescence of the adherent macrophages (2 μg/mL cytochalasin D)
1 | C[C@@H](N)[C@H]1CC[C@H](C(=O)Nc2ccncc2)CC1 [Y27632] | 29 | 32 | 33 | 
2 | Cc1ccc2c(c1)C(=O)C1(O)CCN(c3ccccc3)C1=N2 (stereo not shown) [blebbistatin] | 29 | 33 | 31 | 
3 | C=C1[C@@H](C)[C@H]2[C@H](Cc3ccccc3)NC(=O)[C@]23[C@H](OC(C)=O)/C=C/[C@@](C)(O)C(=O)[C@@H](C)C/C=C/[C@H]3[C@@H]1O [cytochalasin D] |  |  |  | clearly observed
